Reference: US10131652B2, “Pyrimidinyloxy benzene derivatives as herbicides” (E. I. DU PONT DE NEMOURS AND COMPANY, priority 2014, dated 2018)

Experiments:
Test in all cases: Test D pre-/postemergence plant response
Assay type in all cases: in vivo
[1] = system: yellow nutsedge (Cyperus esculentus); details: Postemergence; for Nutsedge, Yellow plant response rating: 31 g ai/ha, scale 0 to 100 (0 no effect, 100 complete control); for Plant response rating, Nutsedge, Yellow: scale 0 to 100, 0 no effect, 100 complete control
How it was run: (§1)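 Greenhouse herbicidal response, both pre- and postemergence applications, with solvent/surfactant formulation. Postemergence plants were at 1- to 4-leaf stage. Visual scores 0–100 relative to controls, taken 13 to 15 days later.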

[2] = system: lambsquarters (Chenopodium album); details: Postemergence; for Lambsquarters plant response rating: 31 g ai/ha, scale 0 to 100 (0 no effect, 100 complete control); for Plant response rating, Lambsquarters: scale 0 to 100, 0 no effect, 100 complete control
How it was run: as §1

[3] = system: pigweed (Amaranthus retroflexus); details: Postemergence; for Pigweed plant response rating: 31 g ai/ha, scale 0 to 100 (0 no effect, 100 complete control); for Plant response rating, Pigweed: scale 0 to 100, 0 no effect, 100 complete control
How it was run: as §1

[4] = system: Italian ryegrass (Lolium multiflorum); details: Postemergence; for Ryegrass, Italian plant response rating: 31 g ai/ha, scale 0 to 100 (0 no effect, 100 complete control); for Plant response rating, Ryegrass, Italian: scale 0 to 100, 0 no effect, 100 complete control
How it was run: as §1

[5] = system: winter wheat (Triticum aestivum); details: Postemergence; for Wheat plant response rating: 31 g ai/ha, scale 0 to 100 (0 no effect, 100 complete control); for Plant response rating, Wheat: scale 0 to 100, 0 no effect, 100 complete control
How it was run: as §1

[6] = system: giant foxtail (Setaria faberii); details: Postemergence; for Foxtail, Giant plant response rating: scale 0 to 100 (0 no effect, 100 complete control); for Plant response rating, Foxtail, Giant: scale 0 to 100, 0 no effect, 100 complete control
How it was run: as §1

[7] = system: ragweed (common ragweed, Ambrosia elatior); details: Postemergence; for Ragweed plant response rating: 31 g ai/ha, scale 0 to 100 (0 no effect, 100 complete control); for Plant response rating, Ragweed: scale 0 to 100, 0 no effect, 100 complete control
How it was run: as §1

[8] = system: blackgrass (Alopecurus myosuroides); details: Postemergence; for Blackgrass plant response rating: scale 0 to 100 (0 no effect, 100 complete control); for Plant response rating, Blackgrass: scale 0 to 100, 0 no effect, 100 complete control
How it was run: as §1

[9] = system: waterhemp (common waterhemp, Amaranthus rudis); details: Postemergence; for Waterhemp plant response rating: 31 g ai/ha, scale 0 to 100 (0 no effect, 100 complete control); for Plant response rating, Waterhemp: scale 0 to 100, 0 no effect, 100 complete control
How it was run: as §1

[10] = system: galium (catchweed bedstraw, Galium aparine); details: Postemergence; for Galium plant response rating: 31 g ai/ha, scale 0 to 100 (0 no effect, 100 complete control); for Plant response rating, Galium: scale 0 to 100, 0 no effect, 100 complete control
How it was run: as §1

[11] = system: velvetleaf (Abutilon theophrasti); details: Postemergence; for Velvetleaf plant response rating: 31 g ai/ha, scale 0 to 100 (0 no effect, 100 complete control); for Plant response rating, Velvetleaf: scale 0 to 100, 0 no effect, 100 complete control
How it was run: as §1

[12] = system: barnyardgrass (Echinochloa crus-galli); details: Postemergence; for Barnyardgrass plant response rating: scale 0 to 100 (0 no effect, 100 complete control); for Plant response rating, Barnyardgrass: scale 0 to 100, 0 no effect, 100 complete control
How it was run: as §1

corn (Zea mays) = details: Postemergence; for Corn plant response rating: scale 0 to 100 (0 no effect, 100 complete control); for Plant response rating, Corn: scale 0 to 100, 0 no effect, 100 complete control
How it was run: as §1

[13] = system: large (Lg) crabgrass (Digitaria sanguinalis); details: Postemergence; for Crabgrass, Large plant response rating: scale 0 to 100 (0 no effect, 100 complete control); for Plant response rating, Crabgrass, Large: scale 0 to 100, 0 no effect, 100 complete control
How it was run: as §1

soybean (Glycine max) = details: Postemergence; for Soybean plant response rating: 31 g ai/ha, scale 0 to 100 (0 no effect, 100 complete control); for Plant response rating, Soybean: scale 0 to 100, 0 no effect, 100 complete control
How it was run: as §1

[14] = system: oilseed rape (Brassica napus); details: Postemergence; for Oilseed Rape plant response rating: 31 g ai/ha, scale 0 to 100 (0 no effect, 100 complete control); for Plant response rating, Oilseed Rape: scale 0 to 100, 0 no effect, 100 complete control
How it was run: as §1

[15] = system: morningglory (Ipomoea coccinea); details: Postemergence; for Morningglory plant response rating: 31 g ai/ha, scale 0 to 100 (0 no effect, 100 complete control); for Plant response rating, Morningglory: scale 0 to 100, 0 no effect, 100 complete control
How it was run: as §1

[16] = system: johnsongrass (Sorghum halepense); details: Postemergence; for Johnsongrass plant response rating: 31 g ai/ha, scale 0 to 100 (0 no effect, 100 complete control); for Plant response rating, Johnsongrass: scale 0 to 100, 0 no effect, 100 complete control
How it was run: as §1

Cc1cc(-c2ccccc2Oc2ncc(Cl)cn2)no1 [Compound 153]
Nutsedge, Yellow plant response rating [1]: 0 | Plant response rating, Nutsedge, Yellow ([1]; 62 g ai/ha): 5 | Plant response rating, Nutsedge, Yellow ([1]; 125 g ai/ha): 5 | Lambsquarters plant response rating [2]: 35 | Plant response rating, Lambsquarters ([2]; 62 g ai/ha): 30 | Plant response rating, Lambsquarters ([2]; 125 g ai/ha): 50 | Pigweed plant response rating [3]: 20 | Plant response rating, Pigweed ([3]; 62 g ai/ha): 40 | Plant response rating, Pigweed ([3]; 125 g ai/ha): 70 | Ryegrass, Italian plant response rating [4]: 0 | Plant response rating, Ryegrass, Italian ([4]; 62 g ai/ha): 0 | Plant response rating, Ryegrass, Italian ([4]; 125 g ai/ha): 0 | Wheat plant response rating [5]: 0 | Plant response rating, Wheat ([5]; 62 g ai/ha): 5 | Plant response rating, Wheat ([5]; 125 g ai/ha): 10 | Foxtail, Giant plant response rating ([6]; 16 g ai/ha): 0 | Foxtail, Giant plant response rating ([6]; 31 g ai/ha): 0 | Plant response rating, Foxtail, Giant ([6]; 62 g ai/ha): 5 | Plant response rating, Foxtail, Giant ([6]; 125 g ai/ha): 5 | Ragweed plant response rating [7]: 10 | Plant response rating, Ragweed ([7]; 62 g ai/ha): 25 | Plant response rating, Ragweed ([7]; 125 g ai/ha): 55 | Blackgrass plant response rating ([8]; 16 g ai/ha): 0 | Blackgrass plant response rating ([8]; 31 g ai/ha): 0 | Plant response rating, Blackgrass ([8]; 62 g ai/ha): 0 | Plant response rating, Blackgrass ([8]; 125 g ai/ha): 0 | Waterhemp plant response rating [9]: 10 | Plant response rating, Waterhemp ([9]; 62 g ai/ha): 35 | Plant response rating, Waterhemp ([9]; 125 g ai/ha): 65 | Galium plant response rating [10]: 70 | Plant response rating, Galium ([10]; 62 g ai/ha): 70 | Plant response rating, Galium ([10]; 125 g ai/ha): 80 | Velvetleaf plant response rating [11]: 20 | Plant response rating, Velvetleaf ([11]; 62 g ai/ha): 60 | Plant response rating, Velvetleaf ([11]; 125 g ai/ha): 50 | Barnyardgrass plant response rating ([12]; 16 g ai/ha): 5 | Barnyardgrass plant response rating ([12]; 31 g ai/ha): 5 | Plant response rating, Barnyardgrass ([12]; 62 g ai/ha): 5 | Plant response rating, Barnyardgrass ([12]; 125 g ai/ha): 5 | Corn plant response rating (corn (Zea mays); 16 g ai/ha): 0 | Corn plant response rating (corn (Zea mays); 31 g ai/ha): 0 | Plant response rating, Corn (corn (Zea mays); 62 g ai/ha): 5 | Plant response rating, Corn (corn (Zea mays); 125 g ai/ha): 5 | Crabgrass, Large plant response rating ([13]; 16 g ai/ha): 0 | Crabgrass, Large plant response rating ([13]; 31 g ai/ha): 5 | Plant response rating, Crabgrass, Large ([13]; 62 g ai/ha): 5 | Plant response rating, Crabgrass, Large ([13]; 125 g ai/ha): 10 | Soybean plant response rating (soybean (Glycine max)): 40 | Plant response rating, Soybean (soybean (Glycine max); 62 g ai/ha): 70 | Plant response rating, Soybean (soybean (Glycine max); 125 g ai/ha): 90 | Oilseed Rape plant response rating [14]: 40 | Plant response rating, Oilseed Rape ([14]; 62 g ai/ha): 60 | Plant response rating, Oilseed Rape ([14]; 125 g ai/ha): 85 | Morningglory plant response rating [15]: 5 | Plant response rating, Morningglory ([15]; 62 g ai/ha): 15 | Plant response rating, Morningglory ([15]; 125 g ai/ha): 25 | Johnsongrass plant response rating [16]: 0 | Plant response rating, Johnsongrass ([16]; 62 g ai/ha): 5 | Plant response rating, Johnsongrass ([16]; 125 g ai/ha): 10

FC(F)(F)c1cc(-c2c(I)cccc2Oc2ncc(Cl)cn2)no1 [Compound 156]
Plant response rating (scale 0 to 100), Nutsedge, Yellow ([1]; 8 g ai/ha): 0 | Nutsedge, Yellow plant response rating [1]: 5 | Plant response rating, Nutsedge, Yellow ([1]; 62 g ai/ha): 5 | Plant response rating (scale 0 to 100), Lambsquarters ([2]; 8 g ai/ha): 10 | Lambsquarters plant response rating [2]: 35 | Plant response rating, Lambsquarters ([2]; 62 g ai/ha): 40 | Plant response rating (scale 0 to 100), Pigweed ([3]; 8 g ai/ha): 15 | Pigweed plant response rating [3]: 60 | Plant response rating, Pigweed ([3]; 62 g ai/ha): 75 | Plant response rating (scale 0 to 100), Ryegrass, Italian ([4]; 8 g ai/ha): 0 | Ryegrass, Italian plant response rating [4]: 0 | Plant response rating, Ryegrass, Italian ([4]; 62 g ai/ha): 0 | Plant response rating (scale 0 to 100), Wheat ([5]; 8 g ai/ha): 0 | Wheat plant response rating [5]: 5 | Plant response rating, Wheat ([5]; 62 g ai/ha): 10 | Plant response rating (scale 0 to 100), Foxtail, Giant ([6]; 8 g ai/ha): 0 | Foxtail, Giant plant response rating ([6]; 16 g ai/ha): 5 | Foxtail, Giant plant response rating ([6]; 31 g ai/ha): 10 | Plant response rating, Foxtail, Giant ([6]; 62 g ai/ha): 35 | Plant response rating (scale 0 to 100), Ragweed ([7]; 8 g ai/ha): 0 | Ragweed plant response rating [7]: 10 | Plant response rating, Ragweed ([7]; 62 g ai/ha): 15 | Plant response rating (scale 0 to 100), Blackgrass ([8]; 8 g ai/ha): 0 | Blackgrass plant response rating ([8]; 16 g ai/ha): 0 | Blackgrass plant response rating ([8]; 31 g ai/ha): 5 | Plant response rating, Blackgrass ([8]; 62 g ai/ha): 5 | Plant response rating (scale 0 to 100), Waterhemp ([9]; 8 g ai/ha): 5 | Waterhemp plant response rating [9]: 70 | Plant response rating, Waterhemp ([9]; 62 g ai/ha): 90 | Plant response rating (scale 0 to 100), Galium ([10]; 8 g ai/ha): 20 | Galium plant response rating [10]: 60 | Plant response rating, Galium ([10]; 62 g ai/ha): 70 | Plant response rating (scale 0 to 100), Velvetleaf ([11]; 8 g ai/ha): 0 | Velvetleaf plant response rating [11]: 15 | Plant response rating, Velvetleaf ([11]; 62 g ai/ha): 25 | Plant response rating (scale 0 to 100), Barnyardgrass ([12]; 8 g ai/ha): 0 | Barnyardgrass plant response rating ([12]; 16 g ai/ha): 0 | Barnyardgrass plant response rating ([12]; 31 g ai/ha): 0 | Plant response rating, Barnyardgrass ([12]; 62 g ai/ha): 5 | Plant response rating (scale 0 to 100), Corn (corn (Zea mays); 8 g ai/ha): 0 | Corn plant response rating (corn (Zea mays); 16 g ai/ha): 5 | Corn plant response rating (corn (Zea mays); 31 g ai/ha): 5 | Plant response rating, Corn (corn (Zea mays); 62 g ai/ha): 5 | Plant response rating (scale 0 to 100), Crabgrass, Large ([13]; 8 g ai/ha): 0 | Crabgrass, Large plant response rating ([13]; 16 g ai/ha): 5 | Crabgrass, Large plant response rating ([13]; 31 g ai/ha): 5 | Plant response rating, Crabgrass, Large ([13]; 62 g ai/ha): 10 | Plant response rating (scale 0 to 100), Soybean (soybean (Glycine max); 8 g ai/ha): 5 | Soybean plant response rating (soybean (Glycine max)): 25 | Plant response rating, Soybean (soybean (Glycine max); 62 g ai/ha): 30 | Plant response rating (scale 0 to 100), Oilseed Rape ([14]; 8 g ai/ha): 5 | Oilseed Rape plant response rating [14]: 40 | Plant response rating, Oilseed Rape ([14]; 62 g ai/ha): 45 | Plant response rating (scale 0 to 100), Morningglory ([15]; 8 g ai/ha): 5 | Morningglory plant response rating [15]: 15 | Plant response rating, Morningglory ([15]; 62 g ai/ha): 65 | Plant response rating (scale 0 to 100), Johnsongrass ([16]; 8 g ai/ha): 0 | Johnsongrass plant response rating [16]: 5 | Plant response rating, Johnsongrass ([16]; 62 g ai/ha): 10
